# Publication PMC3617124 (Nature chemical biology, 2012)
# Legend:
# [1] = tested on: Bax^−/− and Bak^−/− MEFs; assay: apoptotic response to standard proapoptotic stimuli; assay type: cell-based, mouse
# [2] = target: BCL-XLΔC (Homo sapiens, UniProt Q07817); assay: competitive FPA, BCL-XLΔC; assay type: binding; conditions: even at 50-μM dosing
# [3] = tested on: Bax^−/− Bak^−/− MEFs; assay: cell viability assay; assay type: cell-based, mouse; conditions: 24 h, CellTiter-Glo
# [4] = target: T1, BFL-1/A1ΔC (Homo sapiens, UniProt Q16548); assay: competitive FPA, BFL-1/A1ΔC; assay type: binding; conditions: even at 50-μM dosing
# T1 sequence (Q16548 1-153 limits assumed): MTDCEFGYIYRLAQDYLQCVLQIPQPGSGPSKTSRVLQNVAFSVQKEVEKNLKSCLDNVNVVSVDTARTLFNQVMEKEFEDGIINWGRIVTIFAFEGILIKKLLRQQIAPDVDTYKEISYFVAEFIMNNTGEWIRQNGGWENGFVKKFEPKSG
# [5] = tested on: BAKΔC; assay: competitive FPA, BAKΔC; assay type: binding
# [6] = tested on: Bax^−/− MEFs; assay: cell viability assay; assay type: cell-based, mouse; conditions: 24 h, CellTiter-Glo
# [7] = tested on: Bak^−/− MEFs; assay: mitochondrial cytochrome c release; assay type: cell-based, mouse; conditions: 15 h, supernatant and pellet western blot
# [8] = target: MCL-1ΔNΔC (Homo sapiens, UniProt Q07820); assay: competitive FPA, MCL-1ΔNΔC; assay type: binding; conditions: even at 50-μM dosing
# [9] = tested on: Bak^−/− MEFs; assay: cell viability assay; assay type: cell-based, mouse; conditions: 24 h, CellTiter-Glo
# Chain of BCL-XLΔC (Q07817 1-212 limits assumed, stated change not applied): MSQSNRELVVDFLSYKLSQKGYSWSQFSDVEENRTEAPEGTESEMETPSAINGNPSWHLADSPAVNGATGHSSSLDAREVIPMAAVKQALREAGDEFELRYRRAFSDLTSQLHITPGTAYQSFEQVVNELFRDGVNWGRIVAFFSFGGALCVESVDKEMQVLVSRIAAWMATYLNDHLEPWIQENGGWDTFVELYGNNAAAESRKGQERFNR
# Chain of MCL-1ΔNΔC (Q07820 172-327, stated change not applied): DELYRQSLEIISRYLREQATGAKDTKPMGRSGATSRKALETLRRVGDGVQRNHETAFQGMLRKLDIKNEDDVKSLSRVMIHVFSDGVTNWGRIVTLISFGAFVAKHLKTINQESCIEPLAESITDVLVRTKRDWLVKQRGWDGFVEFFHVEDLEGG
compound,measurement,setting,value
COc1cc([C@@H]2c3cc4c(cc3[C@@H](O[C@@H]3O[C@@H]5CO[C@@H](C)O[C@H]5[C@H](O)[C@H]3O)[C@H]3COC(=O)[C@H]23)OCO4)cc(OC)c1O [etoposide],apoptotic response in Bax−/− versus Bak−/− MEFs,[1],equivalent apoptotic response
CN[C@@H]1C[C@H]2O[C@@](C)([C@@H]1OC)n1c3ccccc3c3c4c(c5c6ccccc6n2c5c31)C(=O)NC4 [staurosporine],apoptotic response in Bax−/− versus Bak−/− MEFs,[1],equivalent apoptotic response
"CCOc1ccccc1NN=C1C(=O)N(c2nc(-c3ccccc3)cs2)N=C1C [BAM7, 4-(2-(2-ethoxyphenyl) hydrazono)-3-methyl-1-(4-phenylthiazol-2-yl)-1H-pyrazol-5(4H)-one]",competitive binding interaction with BCL-XLΔC,[2],little to no
same,viability of Bax−/− Bak−/− MEFs,[3],did not affect the viability
same,competitive binding interaction with BFL-1/A1ΔC,[4],little to no
same,competitive binding interaction with BAKΔC,[5]; even at 50-μM dosing,little to no
same,viability of Bax−/− MEFs,[6],no effect
same,mitochondrial cytochrome c release,[7],dose-responsive mitochondrial cytochrome c release
same,competitive binding interaction with MCL-1ΔNΔC,[8],little to no
same,viability of Bak−/− MEFs,[9],dose- and time-responsively impaired the viability
"CC[C@H](C)[C@H](NC(C)=O)C(=O)N[C@@H](Cc1c[nH]c2ccccc12)C(=O)N[C@H](C(=O)N[C@@H](C)C(=O)N[C@@H](CCC(N)=O)C(=O)N[C@@H](CCC(=O)O)C(=O)N[C@@H](CC(C)C)C(=O)N[C@@H](CCCNC(=N)N)C(=O)N[C@@]1(C)CCCC=CCCC[C@@](C)(C(=O)N[C@@H](Cc2ccccc2)C(=O)N[C@@H](CC(N)=O)C(=O)N[C@@H](C)C(=O)N[C@@H](Cc2ccc(O)cc2)C(=O)N[C@@H](Cc2ccc(O)cc2)C(=O)N[C@@H](C)C(=O)N[C@@H](CCCNC(=N)N)C(=O)N[C@@H](CCCNC(=N)N)C(N)=O)NC(=O)[C@H](CC(=O)O)NC(=O)CNC(=O)[C@H]([C@@H](C)CC)NC1=O)[C@@H](C)CC [BIM SAHB, reference compound]",IC50,"[5]; read-out: IC50, competition with FITC–BIM SAHB for BAKΔC, competitive FPA",0.827 µM
